Data on eight compounds can be found in article PMC9832568, “Experimental and computational snapshots of C-C bond formation in a C-nucleoside synthase” (Open Biology, 2023).

Residue numbers refer to the chain shown, from its start. Several values for one entry are separate records, joined by “and”; a condition that tells them apart may be missing. Identical values can stand only once.

What is called Kd is the equilibrium constant for the complex coming apart. A high value points to lower affinity.

The target in test [1] is T1, WT ForT (Streptomyces kaniharaensis, UniProt A0A5S9CYM0). In words: Substrate scope of WT ForT, LC-MS assay. It is filed as biochemical. To be noted: MgPRPP. The protocol:
We assayed a series of pyrazoles as ForT substrates in which the extracyclic amine was replaced by hydrogen (PDA), nitro- (NPDA), methyl- (MPDA) and iodo- (IPDA) groups (figure 5a; electronic supplementary material, table S1). […] On the other hand, 4-amino-1H-pyrazole-3-carboxylate (APCA) can be coupled to PRPP by ForT to give two products containing a new C-C bond, albeit in less than 5% overall yield (figure 5b). In order to assess the importance of pyrazole substitution, we incubated 3-amino-1H-pyrazole-4-carboxylate (iso-APCA) (electronic supplementary material, table S2) and MgPRPP in the presence of ForT. […] Thus, the product was one of two possible C-N nucleotides.

In the next test the target is T2, ForT/PRPP complex (Streptomyces kaniharaensis, UniProt A0A5S9CYM0).
T2 sequence (A0A5S9CYM0 1-341): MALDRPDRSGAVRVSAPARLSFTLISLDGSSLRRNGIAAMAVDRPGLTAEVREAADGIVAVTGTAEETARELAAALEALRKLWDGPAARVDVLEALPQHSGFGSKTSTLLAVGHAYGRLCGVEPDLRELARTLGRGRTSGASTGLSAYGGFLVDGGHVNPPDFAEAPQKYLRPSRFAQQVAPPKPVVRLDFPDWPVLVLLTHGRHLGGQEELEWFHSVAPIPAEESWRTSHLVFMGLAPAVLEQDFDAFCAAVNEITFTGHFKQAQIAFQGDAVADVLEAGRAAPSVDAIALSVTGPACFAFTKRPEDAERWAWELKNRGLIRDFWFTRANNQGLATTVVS
In words: Binding of HPDA to the ForT/PRPP complex. To be noted: Li, unpublished.

Test [2] has as its target T1, WT ForT. The arrangement: method as in PMID 31518483. To be noted: ForT-catalysed coupling to PRPP, two products with a new C-C bond; cited from earlier work.
Another test addresses T3, T138A ForT variant (Streptomyces kaniharaensis, UniProt A0A5S9CYM0, T138A).
T3 sequence (A0A5S9CYM0 1-341 T138A): T2 sequence (A0A5S9CYM0 1-341) with T138A
Put plainly: biochemical.

For another test, the target named is T4, K263A ForT variant (Streptomyces kaniharaensis, UniProt A0A5S9CYM0, K263A).
T4 sequence (A0A5S9CYM0 1-341 K263A): T2 sequence (A0A5S9CYM0 1-341) with K263A
Put plainly: biochemical.

The target in the next test is T5, L24A ForT variant (Streptomyces kaniharaensis, UniProt A0A5S9CYM0, L24A).
T5 sequence (A0A5S9CYM0 1-341 L24A): T2 sequence (A0A5S9CYM0 1-341) with L24A
In words: biochemical.

The target in another test is T6, S174A ForT variant (Streptomyces kaniharaensis, UniProt A0A5S9CYM0, S174A).
T6 sequence (A0A5S9CYM0 1-341 S174A): T2 sequence (A0A5S9CYM0 1-341) with S174A
Put plainly: biochemical.

For the next test, the target named is T7, T138V ForT variant (Streptomyces kaniharaensis, UniProt A0A5S9CYM0, T138V).
T7 sequence (A0A5S9CYM0 1-341 T138V): T2 sequence (A0A5S9CYM0 1-341) with T138V
Put plainly: biochemical.

A further test has as its target T8, S21A ForT variant (Streptomyces kaniharaensis, UniProt A0A5S9CYM0, S21A).
T8 sequence (A0A5S9CYM0 1-341 S21A): T2 sequence (A0A5S9CYM0 1-341) with S21A
In words: biochemical.

Test [3] addresses T1, WT ForT. Put plainly: ITC binding of PRPP to free enzyme, absence of Mg2+. Conditions: no Mg2+, room temperature. An excerpt:
We therefore extended these studies to obtain the binding affinity of APDA to the ForT/PRPP binary complex at room temperature using isothermal calorimetry (ITC) measurements. […] The omission of the catalytically important metal ion thereby avoids any heat generated by catalytic turnover ‘contaminating’ heat released by ligand binding. As a result, these ITC studies report only on the affinity of PRPP and APDA for the free WT enzyme and its PRPP binary complex, respectively.

Another test addresses T9, E211A ForT variant (Streptomyces kaniharaensis, UniProt A0A5S9CYM0, E211A).
T9 sequence (A0A5S9CYM0 1-341 E211A): T2 sequence (A0A5S9CYM0 1-341) with E211A
In words: biochemical.

As for `Nc1[nH]ncc1C(=O)O` [iso-APCA, 3-amino-1H-pyrazole-4-carboxylate], on WT ForT [1], the “substrate for the ForT-catalysed coupling with PRPP” value (shortened to “substrate”) was “a new product had been formed”.
Consider `O=C(O)c1cc(C(=O)O)[nH]n1` [PDA], for which, on WT ForT [1], the “substrate” value is listed as “None of these pyrazole-dicarboxylates proved to be substrates”.
For `O=C(O)c1n[nH]c(C(=O)O)c1[N+](=O)[O-]` [NPDA], the “substrate” value on WT ForT [1] was “None of these pyrazole-dicarboxylates proved to be substrates”.
Consider `O=C(O)c1n[nH]c(C(=O)O)c1O` [HPDA, 4-hydroxy-1H-pyrazole-3,5-dicarboxylic acid], for which the Kd at ForT/PRPP complex was determined as 37000 nM. On WT ForT [1], the “substrate” value is recorded as “is not a substrate”.
Take `Nc1cn[nH]c1C(=O)O` [APCA, 4-amino-1H-pyrazole-3-carboxylate]: the “overall yield of coupled products” value at WT ForT [2] is recorded as “less than 5%”.
On to `O=C(O)c1n[nH]c(C(=O)O)c1I` [IPDA], for which, at WT ForT [1], the “substrate” value is on record as “None of these pyrazole-dicarboxylates proved to be substrates”.
Regarding `Cc1c(C(=O)O)n[nH]c1C(=O)O` [MPDA], the “substrate” value at WT ForT [1] was “None of these pyrazole-dicarboxylates proved to be substrates”.
Consider `O=P(O)(O)OC[C@H]1O[C@H](OP(=O)(O)OP(=O)(O)O)[C@H](O)[C@@H]1O` [PRPP, 5′-phosphoribose-1′-pyrophosphate], for which the Kd at T138A ForT variant worked out at 6700 ± 500 nM; on K263A ForT variant, 20000 ± 8000 nM; at L24A ForT variant, 1500 ± 100 nM; on S174A ForT variant it was 6000 ± 300 nM; at T138V ForT variant, 700 ± 400 nM; at S21A ForT variant it was 350 ± 20 nM. Also, the Kd was 900 nM and 930 nM on WT ForT [3]; 950 ± 20 nM on E211A ForT variant.
